Test results reported in ChEMBL document CHEMBL1201862, “PubChem BioAssay data set” (2004).
Several values for one entry are separate records, joined by “and”; a condition that tells them apart may be missing. Equal values may be shown once.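 Grown in 96-well plates, cells were treated for 48 hours with each compound at five concentrations. Insufficient inhibition: endpoint recorded as highest concentration tested. At the GI50, growth is halved.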 Activity calls are given as the source filed them. No stated cut-off is given here; in the data, active = GI50 up to about 1.1 µM and inactive = higher.

Experiments:
Test in all cases: DTP human tumour cell line panel, 48 h
M19-MEL = system: M19-MEL
DLD-1 = system: DLD-1
DMS-114 = system: DMS-114
KM-20L2 = system: KM-20L2
LXFL 529 = system: LXFL 529
SNB-78 = system: SNB-78
DMS-273 = system: DMS-273
XF498 = system: XF498
RXF 631 = system: RXF 631

Measured: GI50

CN(C)CCNc1ccc2ncn3c4ccccc4c(=O)c1c23
inactive: M19-MEL 2.96 µM | DLD-1 1.96 µM | DMS-114 2.02 µM | KM-20L2 2.13 µM | LXFL 529 2.7 µM | SNB-78 3.04 µM

NCCCNCCSSC/C=C\CSSCCNCCCN
inactive: DMS-273 43.1 µM and 44.8 µM | M19-MEL 64.6 µM | DLD-1 37.5 µM and 60.1 µM | XF498 52.6 µM and 93.5 µM | DMS-114 67 µM and 44.1 µM | LXFL 529 34.9 µM and 24.9 µM

CCOC(=O)CCC(NC(=O)c1ccc(/N=C/c2nc3cc(C(F)(F)F)ccc3nc2-c2ccccc2)cc1)C(=O)OCC (stereo not given)
inactive: DMS-273 > 100 µM | M19-MEL > 50 µM | DLD-1 > 50 µM | XF498 2.81 µM | DMS-114 34.3 µM | KM-20L2 > 50 µM | LXFL 529 43.1 µM | SNB-78 10 µM

COC(=O)c1c/c(=N\NC(=O)CC(=O)Nc2ccccc2OC)c2ccccc2o1
inactive: DMS-273 > 100 µM | M19-MEL > 100 µM | DLD-1 > 100 µM | DMS-114 > 100 µM | KM-20L2 > 100 µM | LXFL 529 > 100 µM | SNB-78 > 100 µM

O=C(CN(c1ccccc1)c1ccccc1)N1c2ccccc2C2C=CC=CC21 (stereo not given)
inactive: DMS-273 22 µM | M19-MEL 21.5 µM | DLD-1 25.6 µM | XF498 19.6 µM | DMS-114 7.38 µM | KM-20L2 24.2 µM | LXFL 529 16 µM | SNB-78 36.8 µM

CC1(C)CC(=O)C(=[N+]=[N-])C(=O)C1
inactive: DLD-1 > 100 µM | XF498 > 100 µM | DMS-114 > 100 µM | KM-20L2 > 100 µM | LXFL 529 > 100 µM

Cc1cc(O)nc(NN2C(Cl)C(=O)C2c2ccccc2O)n1 (stereo not given)
inactive: DMS-273 1.96 µM | M19-MEL 3.84 µM | DMS-114 1.32 µM | KM-20L2 10.7 µM | LXFL 529 2.62 µM | SNB-78 24.3 µM

CCOC(=O)C(C)(C)Oc1ccc2c(=O)cc(-c3ccccc3)oc2c1
inactive: M19-MEL 20.7 µM | DMS-114 17.9 µM | KM-20L2 24.2 µM | LXFL 529 19 µM | SNB-78 26.7 µM

C=CCO/N=C(\OC(=O)c1ccc([N+](=O)[O-])cc1)c1ccccc1
inactive: RXF 631 > 100 µM | DMS-273 > 100 µM | M19-MEL > 100 µM | DLD-1 > 100 µM | DMS-114 > 100 µM | LXFL 529 > 100 µM | SNB-78 > 100 µM

NC(=O)c1ccc(Cl)c([N+](=O)[O-])c1
inactive: DMS-273 > 100 µM | M19-MEL > 100 µM | DLD-1 > 100 µM | XF498 > 100 µM | DMS-114 > 100 µM | KM-20L2 > 100 µM | LXFL 529 > 100 µM | SNB-78 > 100 µM

C/C(=N\Nc1ccc([N+](=O)[O-])cc1)C(=O)N(C)Nc1ccccc1
inactive: DMS-273 69.8 µM | M19-MEL 69.5 µM | DLD-1 > 100 µM | XF498 63.1 µM | DMS-114 48 µM | KM-20L2 60.4 µM | LXFL 529 52.6 µM

N#Cc1ccc(OCCSCCCCCCCCCCSCCOc2ccc(C#N)cc2)cc1
inactive: M19-MEL > 100 µM | DMS-114 1.29 µM | KM-20L2 > 100 µM | LXFL 529 > 100 µM | SNB-78 > 100 µM

COC(=O)C1=CC2OC1(C)C1(CC1)C2=O (stereo not given)
inactive: DMS-273 > 10 µM | M19-MEL 21 µM | DLD-1 14.3 µM | XF498 14.7 µM | KM-20L2 17.5 µM | LXFL 529 18.5 µM

N#CC(C(=O)CCC(=O)C(C#N)c1ccccc1)c1ccccc1 (stereo not given)
inactive: DMS-273 > 100 µM | M19-MEL > 100 µM | DLD-1 > 100 µM | XF498 > 100 µM | DMS-114 > 100 µM | LXFL 529 > 100 µM | SNB-78 > 100 µM

COC1(OC)CCCCC2c3cccc(OC(C)=O)c3C21OC(C)=O (stereo not given)
inactive: DMS-273 > 100 µM | M19-MEL > 100 µM | DLD-1 > 100 µM | XF498 29.2 µM | DMS-114 > 100 µM | LXFL 529 > 100 µM | SNB-78 > 100 µM

NC(=S)N/N=C1\CCCC\C1=C/c1ccccc1
inactive: RXF 631 89.3 µM | DMS-273 18.5 µM | M19-MEL 81.1 µM | DLD-1 33.2 µM | DMS-114 37.3 µM | KM-20L2 > 100 µM | LXFL 529 31.4 µM | SNB-78 > 100 µM

O=C(CCC(=O)C1Cc2ccccc2C1=O)Nc1cccc(C(F)(F)F)c1 (stereo not given)
inactive: RXF 631 > 100 µM | DMS-273 > 100 µM | M19-MEL > 100 µM | DLD-1 > 100 µM | KM-20L2 > 100 µM | LXFL 529 > 100 µM | SNB-78 > 100 µM

CCOc1ccccc1NC(=O)C(=O)CC(=O)c1c(C)[n+]([O-])c2ccccc2[n+]1[O-]
inactive: DMS-273 > 100 µM | M19-MEL 50.9 µM | DMS-114 > 100 µM | KM-20L2 75.7 µM | LXFL 529 > 100 µM | SNB-78 > 100 µM

COC(=O)C(Cc1nc2ccccc2nc1O)C(NO)C(=O)Nc1c(Cl)cc([N+](=O)[O-])cc1Cl (stereo not given)
inactive: DLD-1 28.9 µM | DMS-114 21.2 µM | SNB-78 40.8 µM

CCOC(=O)C1N(S(=O)(=O)c2ccc(C)cc2)CCC12c1ccccc1N(C(C)=O)C2C(/C=C/C(=O)OC)=C/C(=O)OC (stereo not given)
inactive: DMS-273 89.9 µM | M19-MEL > 100 µM | DLD-1 > 100 µM | XF498 > 100 µM | DMS-114 > 100 µM | KM-20L2 > 100 µM | LXFL 529 > 100 µM | SNB-78 > 100 µM
